Results as given in patent US20050202467A1, “Novel spliced 5-HT1A receptors and methods, kits, and uses relating thereto” (Philadelphia Health and Education Corporation (d/b/a MCP …, priority 2003, published 2005).

How the values were obtained:
[1] = system: neoplastic B and T cell lines; experiment: inhibition of activation of neoplastic B and T cell lines; format: cell-based
From the text: Each of the tested compounds has a high affinity for the 5-HT1A receptor and was expected to inhibit the receptor's activity equally well.

primary T cells = experiment: response of mitogen (PHA) stimulated T-cells to selective 5-HT1A inhibitors; format: cell-based; conditions: mitogen (PHA) stimulated T cell cultures, at the concentrations tested (FIG. 2)

Row | Molecule | inhibition of the activation of neoplastic B and T cell lines [1] | inhibition of the activation of primary T cells (primary T cells)
1 | COc1ccccc1N1CCN(CCCCN2C(=O)c3ccccc3C2=O)CC1 [NAN-190] | reproducibly inhibited | reproducibly inhibited
2 | COc1ccccc1N1CCN(CCN(C(=O)c2ccc(F)cc2)c2ccccn2)CC1 [p-MPPF] |  | little or no effects
3 | WAY-100635 |  | little or no effects
